In patent US6849612B2, “Oligonucleotide modulation of cell adhesion” (ISIS Pharmaceuticals, Inc., priority 1993, dated 2005):
Strand notation (5' to 3'): a small letter for the sugar, then the base; units joined by * are phosphorothioate-linked, units joined directly phosphodiester-linked; [ ] holds rarer units or linkages, { } end groups; capitals alone tell only the bases. d = 2'-deoxy (DNA)

Key:
ICAM-1 mRNA = assay: Northern blot of ICAM-1 mRNA in C8161 cells; type: cell-based, human; details: Northern blot analysis
Description: (§1) ICAM-1 expression on the cell surface was measured by ELISA. Cells were treated with increasing concentrations of antisense oligonucleotides in the presence of 15 μg/ml Lipofectin for 4 hours at 37° C. ICAM-1 expression was induced by incubation with 5 ng/ml TNF-α for 16 hours. Cells were washed 3× in DPBS and fixed for 20 minutes in 2% formaldehyde. Cells were washed in DPBS, blocked with 2% BSA for 1 hour at 37° C. and incubated with ICAM-1 monoclonal antibody 84H10 (AMAC, Inc., Westbrook, Me.). Detection of bound antibody was determined by incubation with a biotinylated goat anti-mouse IgG followed by incubation with […] streptavidin and developed with chlorophenol red-β-D-galactopyranoside and quantified by absorbance at 575 nm. ICAM-1 mRNA levels were measured by Northern blot analysis.

ICAM-1 [1] = assay: ELISA of ICAM-1 cell surface expression in C8161 human melanoma cells; type: cell-based; details: 15 μg/ml Lipofectin, 5 ng/ml TNF-α 16 hours
Description: as §1
The data were expressed as percentage of control activity, calculated as follows: (ICAM-1 expression for oligonucleotide-treated, cytokine-induced cells)−(basal ICAM-1 expression)/(ICAM-1 cytokine-induced expression)−(basal ICAM-1 expression)×100.

ICAM-1 [2] = assay: ELISA of ICAM-1 cell surface expression in oligonucleotide-pretreated, cytokine-stimulated HUVEC; type: cell-based, human
[3] = system: C8161 human melanoma cells; assay: Experimental metastasis assay of oligonucleotide-treated C8161 cells in athymic nude mice; type: in vivo
Description: To evaluate the role of ICAM-1 in metastasis, experimental metastasis assays were performed by injecting 1×10^5 C8161 cells into the lateral tail vein of athymic nude mice. […] Assoc. Cancer Res. 1990, 13, 353].
After 4 weeks, mice were sacrificed, organs were fixed in Bouin's fixative and metastatic lesions on lungs were scored with the aid of a dissecting microscope. Four-week-old female athymic nude mice (Harlan Sprague Dawley) were used. Animals were maintained under the guidelines of the NIH. Groups of 4-8 mice each were tested in experimental metastasis assays.
Treatment of C8161 cells with antisense oligonucleotides ISIS 1570 and ISIS 2302, complementary to ICAM-1, was performed in the presence of the cationic lipid, Lipofectin (Gibco/BRL, Gaithersburg, Md.). Antisense oligonucleotides were synthesized as described in Example 3. Cells were seeded in 60 mm tissue culture dishes at 10^6 cells/ml and incubated at 37 °C for 3 days, washed with OPTI-MEM (Gibco/BRL) 3 times and 100 μl of OPTI-MEM medium was added to each well. 0.5 μM oligonucleotide and 15 μg/ml lipofectin were mixed at room temperature for 15 minutes. 25 μl of the oligonucleotide-lipofectin mixture was added to the appropriate dishes and incubated at 37° C. for 4 hours. The oligonucleotide-lipofectin mixture was removed and replaced with DME-F12 medium containing 10% fetal calf serum. After 4 hours, 500 U/ml TNF-α was added to the appropriate wells and incubated for 18 hours at which time cells were removed from the plates, counted and injected into athymic nude mice.

ICAM-1 [4] = assay: Immunoprecipitation of 35S-labelled ICAM-1 from A549 cells; type: cell-based, human; details: 1 μM oligonucleotide
Description: The specificity of the antisense oligonucleotides ISIS 1570 and ISIS 1939 for ICAM-1 was evaluated by immunoprecipitation of ^35S-labelled proteins. A549 cells were grown to confluence in 25 cm^2 tissue culture flasks and treated with antisense oligonucleotides as described in Example 4. The cells were stimulated with interleukin-1β for 14 hours, washed with methionine-free DMEM plus 10% dialyzed fetal calf serum, and incubated for 1 hour in methionine-free medium containing 10% dialyzed fetal calf serum, 1 μM oligonucleotide and interleukin-1β as indicated. ^35S-Methionine/cysteine mixture (Tran^35S-label, purchased from ICN, Costa Mesa, Calif.) was added to the cells to an activity of 100 μCi/ml and the cells were incubated an additional 2 hours. Cellular proteins were extracted by incubation with 50 mM Tris-HCl pH 8.0, 150 mM NaCl, 1.0% NP-40, 0.5% deoxycholate and 2 mM EDTA (0.5 ml per well) at 4° C. for 30 minutes. The extracts were clarified by centrifugation at 18,000×g for 20 minutes. The supernatants were preadsorbed with 200 μl protein G-Sepharose beads (Bethesda Research Labs, Bethesda Md.) for 2 hours at 4° C., divided equally and incubated with either 5 μg ICAM-1 monoclonal antibody (purchased from AMAC Inc., Westbrook Me.) or HLA-A, B antibody (W6/32, produced by murine hybridoma cells obtained from the American Type Culture Collection, Bethesda, Md.) for 15 hours at 4° C. Immune complexes were trapped by incubation with 200 μl of a 50% suspension of protein G-Sepharose (v/v) for 2 hours at 4° C., washed 5 times with lysis buffer and resolved on an SDS-polyacrylamide gel. Proteins were detected by autoradiography.

[5] = system: complementary DNA sequences (ICAM-1 target sites); assay: Tm of oligonucleotide hybridized to complementary DNA; type: binding, human; details: as E23
Source text: The antisense oligonucleotides (synthesized as phosphorothioates) were hybridized to their complementary DNA sequences (synthesized as phosphodiesters). […] Tm's and free energies of duplex formation were obtained from fits of data to a two-state model with linear sloping baselines ([…]. and D. H. […] Results are averages of at least three experiments.

Substance | ICAM-1 mRNA levels (ICAM-1 mRNA) | cell surface expression of ICAM-1 (ICAM-1 [1]) | inhibition of ICAM-1 expression (ICAM-1 [2]; 0.1 μM oligonucleotide, HUVEC, 8 μM DOTMA, interleukin-1β 5 units/ml) | inhibition of ICAM-1 expression (ICAM-1 [2]; 1 μM oligonucleotide, HUVEC, 8 μM DOTMA, interleukin-1β 5 units/ml) | inhibition of ICAM-1 expression (ICAM-1 [2]; 1 μM, HUVEC stimulated with increasing concentrations of tumor necrosis factor and interleukin-1) | effect on ICAM-1 expression after prehybridization to the sense strand (ICAM-1 [2]; COMPOUND 2 prehybridized to COMPOUND 3 prior to addition to the cells) | No. Lung Metastases per Mouse (Mean ± S.E.M.) ([3]; C8161 cells treated with 0.5 μM oligonucleotide + Lipofectin + TNF-α, Lipofectin + TNF-α 81 ± 8) | No. Lung Metastases per Mouse (Mean ± S.E.M.) ([3]; C8161 cells treated with 0.5 μM oligonucleotide + Lipofectin, no TNF-α, Lipofectin only 64 ± 13) | decrease of ICAM-1 synthesis (ICAM-1 [4]; 5 units/ml interleukin-1β) | Tm relative to other oligonucleotides [5] | ICAM-1 synthesis (ICAM-1 [4]; interleukin-1β)
ISIS 1570: phosphorothioate, human ICAM-1 AUG Codon (64-81), SEQ ID NO 1, TGGGAGCCATAGCGAGGC (antisense dT*dG*dG*dG*dA*dG*dC*dC*dA*dT*dA*dG*dC*dG*dA*dG*dG*dC) | decreased ICAM-1 mRNA levels only slightly | decreased cell surface expression of ICAM-1 | 70% | 90% | inhibits expression of ICAM-1 | attenuated | 49 ± 6 | 38 ± 15 | approximately 50% | – | –
ISIS 1939: P=S, human ICAM-1 3′-Untranslated (1952-1971), SEQ ID NO 15, CCCCCACCACTTCCCCTCTC (antisense dC*dC*dC*dC*dC*dA*dC*dC*dA*dC*dT*dT*dC*dC*dC*dC*dT*dC*dT*dC) | markedly reduced | decreased cell surface expression of ICAM-1 | – | – | – | – | – | – | – | lower than that of the majority of the other oligonucleotides | near background
